Assay: Randomized double-blind crossover food effect single-dose study: safety and tolerability (flushing, feeling hot)
Assay type: in vivo, human
Conditions: for Subjects reporting flushing: fasted group; for Subjects reporting feeling hot more than for placebo: fed or fasted groups
From the text: (§1) Twenty-four healthy adult volunteers (males and females) participated in the study. Twelve of the subjects received a dosage form of Example 3, once in a fed condition and once in a fasted condition, with a two-week washout between treatments. The fasted dosing was achieved by dosing the subject following an overnight fast while the fed dosing was achieved by dosing the subject after consuming a high fat-content breakfast.
as §1, with “Twelve” for “Twenty-four”, “All twelve” for “Twelve of the”, “5,” for “3,”
as §1, with “Twelve” for “Twenty-four”, “All twelve” for “Twelve of the”, “10,” for “3,”

[1] = Example 3 dosage form, 200 mg single dose
[2] = Example 5 dosage form, 200 mg single dose
[3] = Example 10 dosage form, single dose

In the case of `CCN(CC)C(=O)COC(=O)/C=C/C(=O)OC` [Compound (1), (N,N-Diethylcarbamoyl)methyl methyl (2E)but-2-ene-1,4-dioate], the “Severity of all adverse events” value [1] is reported as “mild”, the “Tolerability during the trial” value [1] is reported as “well tolerated” and the Subjects reporting flushing (Example 3 dosage form) is reported as “No subjects”. For the same compound, the “Subjects reporting flushing more frequently than in the fed placebo group” value (Example 3 dosage form) was “One”, the “Subjects reporting feeling hot more than for placebo” value (Example 3 dosage form) was “no subjects” and the “Severity of all adverse events” value [2] was “mild”. The “Tolerability during the trial” value [2] was “well tolerated”, the Subjects reporting flushing (Example 5 dosage form) was “No subjects” and the “Subjects reporting flushing more frequently than in the fed placebo group” value (Example 5 dosage form) was “Two”. For the same compound, the “Subjects reporting feeling hot more than for placebo” value (Example 5 dosage form) was “no subjects”, the “Adverse events reported in more than one subject and more frequently than for placebo” value [3] was “flushing and feeling hot” and the “Severity of all adverse events” value [3] was “mild”. The “Tolerability during the trial” value [3] was “well tolerated”.

Reference: patent US20210228525A1, “Methods of Administering Monomethyl Fumarate and Prodrugs Thereof Having Reduced Side Effects” (Arbor Pharmaceuticals, LLC, priority 2012, published 2021)
